5-HT1AR expression data for 2 compounds are collected here from patent US20240299353A1, “COMPOSITIONS AND METHODS FOR TREATING […] 5-MEO-DMT” (Alvarius Pharmaceuticals Ltd., priority 2021, published 2024).

The assay has as its system 5-HT1AR. Put plainly: Western blot of 5-HT1AR in brain regions, chronic cocaine ± 5-MeO-DMT. The format is in vivo, Male Wistar rats. From the text: Male Wistar rats aged 7 weeks were acclimatized to the facility for 1 week prior to the beginning of the study. […] Animals were euthanized 23- or 119-hours following vehicle or 5-MeO-DMT administration.
Following euthanasia brain regions of interest were isolated. Briefly, the olfactory bulbs were removed before the brain was placed in a rat brain matrix (FIG. 2A). Sterile blades were inserted at positions 2 and 3 (FIG. 2B) to extract a coronal slice containing the Bregma+˜0.2-+˜2.2 coordinates (FIG. 2C). From this tissue slice a blunted 12 G needle was used to punch dissect the NAc and dorsal striatum (DS) (FIG. 2D-2E) identified using the rat brain atlas (Panxinos and Watson 2nd edition). The PFC, hippocampus (Hip) and amygdala (Amyg) were then blunt dissected (FIG. 3A-3D). All regions were frozen in liquid nitrogen and stored at −80° C. until processed.
These treatment groups were used for the molecular assessment of addiction-linked markers.
Determination of protein concentration—a bicinchoninic acid assay (BCA, ThermoFisher) was conducted to determine the total protein concentration in tissue lysates following manufacturer's instructions. Briefly, bovine serum albumin (BSA) standards were prepared in a serial dilution (0-2.0 mg protein/ml) and 200 μl working reagent (50:1, reagent A: reagent B) was added to each of the standards and samples in a 96 well plate (Greiner). For tissue lysates a 1:10 dilution was performed with cell lysis buffer to ensure absorbance values lay within the working range established by the standards. All samples and standards were added in duplicate. The plate was covered and incubated for 30 mins at 37° C. before absorbance was read at 562 nm on a plate reader (SpectraMax M3). The absorbance values were used to form a standard curve of known protein concentrations and protein concentration of samples were derived using the equation of the line. All samples were standardized to the lowest protein concentration using distilled H20 (dH2O).
SDS-PAGE and Western Blotting—Following equalisation of protein concentrations, 6× sample loading buffer (15% SDS, 15% […], 50% glycerol, 0.01% bromophenol blue, […]) was added to each sample using a dilution factor of 1:5 of the total volumes before boiling at 100° C. for 5 mins. Samples were stored at −20° C. until use. One dimensional sodium-dodecyl-sulphate polyacrylamide gel electrophoresis (SDS-PAGE) was used for protein separation based on molecular weight. The percentage of acrylamide in the resolving or stacking gel was determined by the molecular weight of the protein of interest. In this instance all gels consisted of a 5% stacking gel and a 10% resolving gel with the exception of mGluR5, G9a (8%) and H3K9Me2 (12%). 20 μg of protein was loaded and resolved using SDS-PAGE. Gel electrophoresis was conducted at 80V while the protein was in the stacking gel, once it migrated to the resolving gel the voltage was increased to 120V and ran for 90 mins. Samples were transferred to a 0.45 μm polyvinylidene difluoride (PVDF) membrane (Analab) for 1 hour at 100V and blocked in 5% milk blocking solution made in tris-buffered saline containing tween®-20 (TBS-T, Sigma) for 90 mins. Primary antibodies (FIG. 5) were diluted in 5% BSA in TBS-T and incubated with membranes overnight at 4° C. or for 2 hours at room temperature. After incubation with primary antibodies the membranes were washed in TBS-T for 4×10 minutes before incubation with 1:2000 anti-rabbit and 1:2000 anti-mouse Alexa Fluro® conjugated secondary antibodies (Invitrogen) in 2% milk for 1 hour at room temperature. Membranes were washed in TBS-T for 4×10 minutes and in TBS for 1×10-minute wash. Proteins were visualized using Odyssey® infrared imaging system. Protein expression was quantified using Image Studio Lite (Version 5.2) and expression intensities were normalized to a house keeping protein, α-Tubulin or β-actin.

Where [1] appears, read: hippocampus, 120 h, all treatment groups.

In the case of `COC(=O)[C@H]1[C@@H](OC(=O)c2ccccc2)C[C@@H]2CC[C@H]1N2C.Cl` [cocaine, cocaine hydrochloride, reference compound], the 5-HT1AR expression entry by setting is: (amygdala, 24 h, cocaine, p=0.0172, no post hoc differences) “significant cocaine effect”; (amygdala, 120 h, cocaine) “does not persist to 120 hours”; (hippocampus, 24 h, repeated cocaine) “decreased 5-HT1AR expression”; under setting [1], “equal across treatment groups”.
As for `COc1ccc2[nH]cc(CCN(C)C)c2c1` [5-MeO-DMT, 5-methoxy-N,N-dimethyltryptamine], the 5-HT1AR expression result is “only the 10 mg/kg concentration achieves significance” (hippocampus, 24 h, 10 mg/kg 5-MeO-DMT alone (decrease)); “trend towards decreasing expression levels” (hippocampus, 24 h, 20 mg/kg 5-MeO-DMT alone); “restoring receptor expression to levels comparable to control” (hippocampus, 24 h, cocaine + either 5-MeO-DMT concentration (10 or 20 mg/kg)); “equal across treatment groups” under setting [1].
